Test results reported in patent US20250040546A1, “DETERGENT FOR VIRAL INACTIVATION” (Bristol-Myers Squibb Company, priority 2021, published 2025).
Where two headings read alike, the source gives them in different places.

How the values were obtained:
[1] = test system: X-MuLV; assay: Detergent-mediated virus inactivation of X-MuLV in mAb1 harvest (pfu-based LRV); assay type: cell-based, Xenotropic Murine Leukemia Virus; conditions: for Log reduction value (LRV) of X-MuLV: 60 minutes hold at 2-8° C.
Method: (§1) Three lipid-enveloped viruses X-MuLV, HSV-1 and A-MuLV (Amphotropic Murine Leukemia Virus) were investigated for VI in the cell culture fluid of a monoclonal antibody (mAb1) and a fusion protein (Fus1) for a range of detergents and detergent concentrations (FIG. 6). Protein concentration and buffer matrix were dictated by that in the harvest for the specific therapeutic and process. A temperature of 2-8° C. was used as a worst case for inactivation and incubation times of 0, 5 and 60 minutes were used to explore the kinetics of inactivation. Viral clearance was measured in units of Log Reduction Value (LRV) which was calculated from pfu (Plaque Forming Units) as follows
(§2) Virus inactivation studies were conducted for X-MuLV in mAb1 harvest, HSV-1 and A-MuLV in Fus1 harvest at 0, 5 and 60 minutes at 2-8° C. The inactivation studies for each condition were conducted in duplicates with results varying within 0.5 LRV. The lower of the two LRVS was plotted in FIG. 6 to remain conservative regarding the extent of inactivation. The error bars represent the assay variability.
The mechanism of detergent-mediated VI can share similarities with pH-mediated VI and is likely a characteristic of the detergent-protein-virus system under consideration. Detergents could unfold or denature specific viral surface glycoproteins that are critical for the host cell infection as is the case for X-MuLV [Brorson et al. (2003) Biotechnology and Bioengineering 82(3):321-329; Simons & Ehehalt (2002) Journal of Clinical Investigation 110(5):597-603]. Alternately, detergents could inactivate viruses such as HSV-1 through dissolution of the viral lipid envelope or preferential partitioning of the membrane protein into detergent micelles [Welling-Wester et al. (1998) Journal of chromatography A 816(1):29-37]. Three lipid-enveloped viruses commonly used for viral validation studies, X-MuLV, HSV-1 and A-MuLV (Amphotropic Murine Leukemia Virus), were investigated for VI. Any VI condition showing LRV ≥4.0 after a 60 minute hold at 2-8° C., worst case temperature for VI, was considered effective. The extent of inactivation from different detergents was compared with Triton X-100.

[2] = cited from earlier work
[3] = test system: fusion proteins Fus1 and Fus2; assay: SEC analysis of HMW formation and aggregation kinetics of fusion proteins with detergents; assay type: physicochemical
Method: Size exclusion chromatography (SEC) was performed in a Waters HPLC Alliance 2695 System using TSKgel G3000SWXL Column (Tosoh Bioscience, Catalogue no. 085430) with guard column (Tosoh Bioscience, Catalogue no. 08541) in line. A mobile phase of 0.2 M Sodium phosphate, monobasic, 0.9% NaCl, pH 7.0 was used with 20 μL injection volumes at 1 to 10 mg/mL target protein concentrations with a flow rate of 1 mL/minute. Tandem SEC was performed with 50 μL injection volumes with a flow rate of 0.5 mL/minute using 6 TSKgel G3000SWXL Column using 0.2 M KH2PO4, 0.9% NaCl, pH 6.8 as mobile phase.
Given N is the monomer species, No is the initial monomer % at time t=0, aggregation follows first order kinetics with k1 being the rate constant of aggregation as shown in Equation (1) (Derivation in Supplemental Information).

[4] = test system: lipid-enveloped viruses; assay: Viral inactivation, summary statements (LRV equal or above 4 criterion); assay type: cell-based; conditions: detergent below its CMC, e.g. 0.5×CMC; virus not named
From the text: The present disclosure relates to detergent-mediated inactivation of lipid-enveloped viruses. […] The current commercially available detergent for such process is Triton X-100.
Several environmentally friendly detergents for the viral inactivation step of biologics manufacturing processes have been identified in the art, e.g., Lauryldimethylamine Oxide (LDAO) and ECOSURF™ EH9. These systems for viral inactivation use a single detergent. The present disclosure provides a detergent mixture comprising two environmentally sustainable detergents: n-Octyl-β-D-Glucopyranoside (OG) and n-Dodecyl-β-D-Maltopyranoside (DDM). […] Accordingly, the disclosed combination of OG and DDM can be used as substitute of Triton X-100 for the viral inactivation step in the production of biologics, for example, in the process used to manufacture ORENCIA®.

[5] = biological target: T1, Fus1 (Homo sapiens, UniProt P16410); assay: Oxidation of Fus1 (tryptic digest RP-UPLC) after detergent spiking of harvest; assay type: physicochemical; conditions: Fus1 harvest spiked with detergent at 1×CMC, protein A eluate
T1 construct: made in house; host or cells: CHO
T1 sequence (P16410 with tags, fused parts or gaps): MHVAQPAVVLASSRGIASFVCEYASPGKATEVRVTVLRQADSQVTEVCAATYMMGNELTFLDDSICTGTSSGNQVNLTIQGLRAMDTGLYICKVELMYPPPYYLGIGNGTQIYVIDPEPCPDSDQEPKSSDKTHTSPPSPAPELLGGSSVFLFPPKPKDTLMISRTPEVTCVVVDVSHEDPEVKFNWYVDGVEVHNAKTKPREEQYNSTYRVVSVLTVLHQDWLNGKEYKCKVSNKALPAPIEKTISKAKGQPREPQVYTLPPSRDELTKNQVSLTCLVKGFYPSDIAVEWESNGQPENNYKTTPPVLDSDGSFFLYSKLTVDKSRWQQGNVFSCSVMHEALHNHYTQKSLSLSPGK
Method: (§3) The protein sample was denatured in denaturation buffer (8 M guanidine, 50 mM TRIS, pH 8.0) and the cystine disulfide bridges were reduced with dithiothreitol (200 mM DTT) followed by S-alkylation with iodoacetamide (400 mM IAM). The denatured, reduced protein was buffer-exchanged (50 mM TRIS, 10 mM CaCl2), pH 7.6) prior to digestion with trypsin. The resulting digested mixture was then analyzed by reverse-phase ultra-performance liquid chromatography (RP-UPLC) using UPLC BEH C18 Column, […], 130 angstrom, 2.1×100 mm (Waters, Catalog no. 186002352) with Mobile Phase A (0.1% TFA, 50 mM Methionine in HPLC Grade Water) and Mobile Phase B (0.1% TFA, 50 mM Methionine in 80% ACN and 20% HPLC grade water). Protein detection at 215 nm absorbance and fluorescent excitation/emission of 275 nm/303 nm and 280 nm/348 nm was used to quantify relative levels of oxidation and deamidation respectively.

[6] = test system: B7.1 Ig; assay: Potency: Surface Plasmon Resonance binding of CTLA-4 domain of Fus1 to B7.1 Ig in presence of detergent; conditions: high concentration Fus1 DS; detergent at 10×CMC; 24 hours, room temperature
Method: The potency was determined by measuring the binding efficacy of the CTLA-4 (cytotoxic T-lymphocyte-associated protein 4) domain of the fusion proteins against the complementary binding domain of membrane protein B7.1 Ig, typically found on activated antigen-presenting cells (APC). Drug efficacy for the purified DS was evaluated using a Surface Plasmon Resonance assay; the binding efficacy of the CTLA-4 domain of Fus1 and Fus2 against a high concentration of the peripheral membrane protein B7.1 Ig was examined. Due to the influence of impurities on the binding efficacy, only DS was tested.

[7] = biological target: T2, Fus2 (Homo sapiens, UniProt P16410, A66Y/L141E); assay: Oxidation of Fus2 (tryptic digest RP-UPLC) after detergent spiking of harvest; assay type: physicochemical; conditions: Fus2 harvest spiked with detergent at 1×CMC, protein A eluate
T2 construct: made in house; host or cells: CHO
T2 sequence (P16410 with tags, fused parts or gaps A66Y/L141E limits assumed): as the sequence (P16410 with tags, fused parts or gaps) above, with A29Y, L104E counted along it
Method: as §3

[8] = test system: A-MuLV; assay: Detergent-mediated virus inactivation of A-MuLV in Fus1 harvest (pfu-based LRV); assay type: cell-based, Amphotropic Murine Leukemia Virus; conditions: detergent concentration not stated
Method: as §1, §2
The mechanism of detergent-mediated VI can share similarities with pH-mediated VI and is likely a characteristic of the detergent-protein-virus system under consideration. […]

[9] = test system: HSV-1; assay: Detergent-mediated virus inactivation of HSV-1 in Fus1 harvest (pfu-based LRV); assay type: cell-based, Herpes Simplex Virus type 1; conditions: detergent concentration not stated
[10] = Slinde & Flatmark (1976); cited from earlier work
[11] = Sialic acid content of Fus1 and Fus2 Protein A eluates of detergent-spiked harvest; assay type: physicochemical; conditions: stated as within acceptable range
Method: Sialic acids are neuraminic acids modified by the addition of an acetyl group (N-acetylneuraminic acid/NANA) or a glycol group (N-glycolylneuraminic acid/NGNA) .Sialic acid contents are reported as normalized molar ratios, which are the total moles of NANA and NGNA per mole of recombinant protein. The protein concentrations were determined by UV absorbance at 280 nm. Sialic acid content was determined by partial acidic hydrolysis using sulfuric acid at 0.1 N final concentration at 80° C. for 1 hour followed by reversed phase HPLC using Rezex Monosaccharide RHM HPLC column (Phenomenex, Catalog No. OOH-0132-KO with respective guard column (Phenomenex, Catalog No. 03B-0132-KO). Elution was conducted with 5 mM Sulfuric acid at 0.6 mL/min and 40° C.

[12] = Isoelectric point (pI); assay type: physicochemical

CCCCCCCCCCO[C@@H]1O[C@H](CO)[C@@H](O[C@H]2O[C@H](CO)[C@@H](O)[C@H](O)[C@H]2O)[C@H](O)[C@H]1O [DM, n-Decyl-β-D-Maltopyranoside]
Log reduction value (LRV) of X-MuLV ([1]; detergent at 10×CMC): 2.0 LRV

CCCCCCCCCCCC[N+](C)(C)[O-] [LDAO, Lauryldimethylamine Oxide]
LRV ([2]; fusion protein at 2-8° C. (Conley et al.)): ~3.0 LRV | LRV ([2]; fusion protein at room temperature (Conley et al.)): ~4.0 LRV | LRV ([2]; mAb under the same conditions, 2-8° C. (Conley et al.)): 4.0 LRV

CCCCCCCCO[C@@H]1O[C@H](CO)[C@@H](O)[C@H](O)[C@H]1O [OG, n-Octyl-β-D-Glucopyranoside]
HMW formation (rank among detergents) ([3]; SEC, DS and clarified harvest of Fus1 and Fus2): greatest | Rate of aggregation (rank among OG, DDM, LDAO) ([3]; high concentration DS of Fus1 and Fus2): fastest rate of aggregation | Viral inactivation (defined as a LRV equal or above 4) [4]: insufficient for viral inactivation | Oxidation of Fus1 [5]: higher oxidation | Potency (B7 binding efficiency relative to reference material) [6]: less than 60% | Oxidation of Fus2 [7]: higher oxidation

Polysorbate 80 [PS80]
Inactivation of A-MuLV [8]: No inactivation | Inactivation of HSV-1 [9]: No inactivation | Inactivation of X-MuLV ([1]; detergent concentration not stated): No inactivation

Triton X-100
HLB value [10]: 13.5 | Log reduction value (LRV) of X-MuLV ([1]; detergent at 1×CMC): ≥ 4.85±0.5 LRV | Log reduction value (LRV) of X-MuLV ([1]; detergent at 10×CMC): ≥ 4.85±0.5 LRV

Fus2: fusion protein belatacept (SEQ ID NO:2 proteins)
NANA (N-acetylneuraminic acid): protein molar concentration [11]: 6 to 8.5% | pI [12]: ~5.0

Fus1: fusion protein abatacept (CTLA4-Ig, SEQ ID NO:1 proteins)
NANA (N-acetylneuraminic acid): protein molar concentration [11]: 8 to 12% | pI [12]: ~5.0
